Reference: a melting point compilation (Tetko et al.; mined from patent text by program, amines drawn as free bases though some values may be those of a salt)

melting point [°C] | SMILES
246 to 248 | Cc1nc(-c2cccc(C(=O)Nc3ccc(Cl)cc3)c2)sc1C(=O)O
104 to 105 | COc1cc(C2CCCCC2)ccc1CCCC(=O)O
113 to 115 | Brc1cccc(C2Cc3cnc(Nc4ccc(CCN5CCN(c6ccccc6)CC5)cc4)nc3-c3ccccc32)c1 (configuration not stated)
98 to 100 | CC(=O)Oc1ccc(C(=O)Oc2ccc(C(=O)O)cc2)cc1
112 to 113 | CC1(C)Cc2c(c(N3CCOCC3)nc3sc4c(N(CCO)CCN5CCOCC5)ncnc4c23)CO1
53 to 54 | N#Cc1c(C(F)(F)F)ccc(Cl)c1Cl
218 to 219 | N#CC(N)=C(C#N)N=Cc1c(Cl)cc(C(F)(F)F)cc1Cl
178 to 180 | O=C(NC(=O)c1c(F)cccc1F)Nc1cc(Cl)c(OC(F)(F)C(F)Cl)c(Cl)c1 (configuration not stated)
102 to 104 | CC(C)Nc1cccnc1N1CCN(C(=O)c2ccc(C(=O)N(C)CC3OCCO3)cc2)CC1
234 to 235 | COC(=O)C(C)(C)c1ccc(C(=O)Nc2cn3cc(I)ccc3n2)cc1
99 | COc1ccc(CN2C(=O)C(C)(c3cc(C(=O)N4CCCCC4C(=O)N(C)CC(F)(F)F)ccc3Cl)c3cc(Cl)ccc32)c(OC)c1 (configuration not stated)
259 to 261 | CCOCc1nc2c(N)nc3ccc(NC(=O)C(C)C)cc3c2n1CC(C)(C)O
131 to 133 | CCCCc1ccc2nnc(C(=O)O)cc2c1
228 | COc1ccc2c3c([nH]c2c1[N+](=O)[O-])C(=O)CC3
107 | COc1cc(Oc2cc(C(F)(F)F)nn2C)nc(Oc2cc(C(F)(F)F)nn2C)c1
138 to 140 | COc1cc(C(C)=O)ccc1OCCCN1CCN(c2nn(C(=O)c3ccccc3)c3cccc(F)c23)CC1
128 to 130 | COC(=O)C(C)(C)OCc1cc2cc(Cl)ccc2n1S(=O)(=O)c1ccc2c(c1)CCN2C(C)=O
90 to 97 | COc1cc(N2CCCN(C3CCN(C)CC3)CC2)ccc1Nc1ncc2ccc(-c3ccccc3N(C)S(C)(=O)=O)n2n1
173 to 175 | COc1ccc(C(=O)Nc2ccccc2)cc1NC(=O)C(O)c1ccccc1 (configuration not stated)
162 to 163 | c1ccc(CCC2CCN(Cc3c[nH]c4ncccc34)CC2)cc1
67 to 68 | CCCCn1c(=O)c2nn(S(=O)(=O)CCCCl)cc2n(CCCC)c1=O
63 to 64 | COc1cccc(CO)c1C
122 to 125 | Cc1cn(-c2ccc(N)cc2)cn1
156 to 157 | O=C1N(c2ccc(Cl)cc2F)C(=S)C2CCCCC12O (configuration not stated)

melting point [°C] | SMILES
144 | COc1cc2c(cc1OC)CN(CCCCc1ccc(NC(=O)c3cnc4ccccc4n3)cc1)CC2
196 | CN(C)c1cccc2c(S(=O)(=O)Nc3ccc([N+](=O)[O-])cn3)cccc12
156 to 158 | NC(=O)N1CCN(c2nn(-c3ccccc3Cl)c3ccccc23)CC1
87 to 88 | CCCCOCCOc1ccc(-c2ccc(N3CCCC3)c(C(C)=O)c2)cc1
248 to 250 | Oc1ccc(Cl)cc1-n1c(=S)[nH]c2cc(C(F)(F)F)ccc21
182 | Nc1cc(=O)n(Cc2ccc([N+](=O)[O-])cc2)[nH]1
130 to 140 | CC(=O)NNc1ccc(N)cc1
> 280 | N#Cc1cnc2c(-c3ccncc3)c(-c3ccc(F)cc3)nn2c1N
185 to 186 | N#CNC(=O)[C@@H]1CCC(=O)N1C(=O)OCc1ccccc1
168 | Cc1cc(N)cc(C)c1C(=O)Cc1ccccc1C(F)(F)F
171 to 174 | CSc1cn(C)c2ccsc2c1=O
128 to 130 | O=C(CCCCCNCc1cc2nc(-c3cccc4[nH]ncc34)nc(N3CCOCC3)c2s1)NO
123 to 126 | CCCCc1nn(-c2cc(NC(=O)CC)ccc2Br)c(=O)n1Cc1ccc(-c2ccccc2S(=O)(=O)NC(=O)OC(C)(C)C)cc1F
149 to 152 | O=C1c2ccccc2C(=O)N1CCCOc1cccc([N+](=O)[O-])c1
142 to 143 | COP(=O)(CCC(C)(C)c1ccc(O)cc1O)OC
190 | Cc1cc(-c2ccc(C(F)(F)F)cc2)cc(-c2cccc(-c3cccc(S(=O)(=O)NC(=O)C(C)C)c3)n2)n1
250 to 252 | NS(=O)(=O)c1cc2c(s1)S(=O)(=O)CCN2
74 to 75 | Cc1cccc(C(=O)CC(=O)C2CCCC2)c1O
159 to 161 | COc1ccc(N2CCN(c3c(C)c(C)c4c(c3C)C(c3cccnc3)C(C)(C)O4)CC2)cc1 (configuration not stated)
76 to 79 | O=C1OC(CCCCl)CN1c1ccccc1 (configuration not stated)
174 to 176 | COc1ccc(C(NCCc2ccccc2)c2cccc(Nc3c(N)c(=O)c3=O)c2)cc1 (configuration not stated)
170 to 171 | COc1ccc(-c2c(Cl)c(CN3C(=O)CCC3=O)nc3sc4c(c23)CCC(C(=O)N2CCOCC2)C4)cc1 (configuration not stated)
136 to 137 | COc1ccc(S(=O)(=O)Nc2ccccc2NC(=O)c2cccs2)cc1
103 to 106 | CCC1(CC)C(=O)ON(C(=O)c2cc(OC)c(OC)c(OC)c2)C1=O

melting point [°C] | SMILES
> 260 | CCNCc1ccc2nc(C)[nH]c(=O)c2c1
109 to 112 | COc1cc(OCCN(C)C)ccc1/C=C/c1cc(/C=C/c2ccc3cc[nH]c3c2)[nH]n1
250 to 252 | CC(=O)Nc1cc2cc(N)ccc2oc1=O
105 to 107 | CC(CN(C)C)CC(CNC(=O)N(CCCl)N=O)(c1ccccc1)c1ccccc1 (configuration not stated)
205 | CNC(=O)N1CCc2[nH]cnc2C1c1ccco1 (configuration not stated)
105 to 106 | CC(C)(C)OC(=O)N[C@H](CC(=O)OCc1ccccc1)C(=O)N[C@H](COC(=O)OCc1ccccc1)c1ccccc1
175 to 178 | COc1ccccc1N1CCN(Cc2ccccc2C(c2ccc(O)cc2)c2ccc(O)cc2)CC1
183 to 185 | CC(=O)N1CCc2cc(N)ccc21
64 to 65 | COC=C(C#N)Cc1ccc(OC)c(OC)c1
160 to 190 | CC1CN(S(=O)(=O)c2cc(C#N)ccc2Sc2cc(Cl)ccc2Cl)CC(C)N1 (configuration not stated)
177 to 181 | C=CC(=O)N1CC[C@H]2[C@H]1[C@@H](CCC)C(=O)N2S(C)(=O)=O (relative stereo)
> 300 | N#CC1(C#N)CN=C(O)C(c2cc(O)c(O)c([N+](=O)[O-])c2)=N1
207 to 209 | CCOC(=O)c1cn(Cc2ccc(F)cc2)c2ccc(C(C)=O)cc2c1=O
251 to 253 | N=C(NN)c1ccccc1C(=N)NN
85.1 | COc1ccc(OS(=O)(=O)c2ccc(C)cc2)c(C(C)C)c1
68 | COc1ccc(S(=O)(=O)C(C)(Cc2ccc(OCCN3CCCCCC3)cc2)C(=O)NO)cc1 (configuration not stated)
106 to 108 | CCCCc1cc(C(=O)O)c(=O)n(CCCC)c1C
147 to 148 | COCCOc1ccc(-c2nc(C(=O)Nc3nccs3)c(-c3ccc(Cl)cc3)[nH]2)cc1
119 to 120 | O=C(C(=O)c1ccc(Cl)cc1)c1ccncc1
169 | Cc1cc(COc2ccc(C(=O)NC[C@](O)(C(N)=O)N3CCN(Cc4ccccc4)CC3)cc2)c2ccccc2n1
159 to 161 | O=C1Nc2ccc(C3CC4CCC3C4)cc2C12OCCO2 (configuration not stated)
224 to 225 | CN(C)C(=O)Cn1c(-c2ccc(Br)cc2)nc2cccnc21
185 to 190 | N#Cc1ccc2oc3c(c2c1)CCC(C(=O)O)C3 (configuration not stated)
138 | CCCc1c(OCCCOc2cccc3c2CCCC3)ccc2c1OC(CCCC(=O)O)(CCCC(=O)O)CC2=O

melting point [°C] | SMILES
40 to 42 | CCCCCCCCCC[C@@H]1C(=O)OC(C)=C[C@@H]1C(=O)OC
214 | CC1(C)Oc2ccc([N+](=O)[O-])cc2C(n2ccccc2=O)C1(C)O (configuration not stated)
203 to 204 | CCN1CCN(Cc2ccc(NC(=O)Nc3ccc(Oc4cc(Cl)ncn4)cc3)cc2)CC1
230 to 232 | Cc1ccc(-c2cc(N3CCC(C(N)=O)CC3)c3ccccc3n2)cc1
150 | Cc1cccc2c1CCn1ncnc1C2=C1CCN(C)CC1
234 to 235 | Cc1cc(C)nc(S(=O)(=O)Nc2c(Cl)ccc(C)c2Cl)n1
182 to 185 | NC(c1ccccc1)c1ccc(C(N)c2ccc(C(N)c3ccccc3)cc2)cc1 (configuration not stated)
178 to 179 | COc1cc(C2=CCCCC2)c(Cl)cc1C(=O)N1Cc2ccc(C(=O)N(C)Cc3cccnc3)n2Cc2ccccc21
179 to 181 | O=c1c2cc(F)c(F)cc2n(-c2cccc(F)c2)c(=O)n1OCc1ccccc1
226 to 228 | COC(=O)c1cn(-c2ccc(O)cc2C)c(C2CCNCC2)cc1=O
138 | CC(C)C(=O)N=c1ccn(-c2ccccc2)nc1
161 to 163 | CC(C)(C)c1cc(CNn2ccnc2N2CCOCC2)cc(C(C)(C)C)c1O
136 | COC(=O)[C@@H]1CCCN1S(=O)(=O)c1ccc(Cl)c(COc2cccc3ccc(C)nc23)c1Cl
162 | CCOC(=O)N1CCC(NC(=S)Nc2cc(Cl)ccc2NCc2ccccc2)CC1
264 | Cc1nc(NC(=O)c2cnn3c(C(F)(F)F)cc(-c4ccc(C(F)(F)F)c(OCC(F)(F)F)c4)nc23)sc1S(N)(=O)=O
235 to 236 | CC(C(=O)O)=C1c2ccccc2C=Cc2ccccc21
288 to 290 | Cc1[nH]c(-c2ccccc2)c(NC(=O)CN2C(=O)c3ccccc3C2=O)c1C(=O)c1ccccc1
137 to 139 | c1cncc(Nc2nnc(Cc3ccncc3)c3ccccc23)c1
255 | O=C1CCC(N2C(=O)c3ccccc3C2=S)C(=O)N1 (configuration not stated)
36 | CCCCCNC(CCCCC)=C1C(=O)ON=C1C
54 | CCCCc1nn2c(C)cccc2c1Cc1ccc(Br)cc1
213 to 215 | Nc1ccc(CO)c(Nc2nccc(-c3cccnc3)n2)c1

SMILES | melting point [°C]
COc1ccc2[nH]cc(CCCCN3CC=C(c4cccs4)CC3)c2c1 | 158
N#Cc1ccc(NC(=O)n2ccc3cc(Oc4cc(CC(N)=O)ncn4)ccc32)cc1C(F)(F)F | 204 to 209
CC(C)(C)OC(=O)c1ncn2c1C1C=CCN1C(=O)c1c(Cl)cccc1-2 (configuration not stated) | 227 to 229
